Where two headings read alike, the source gives them in different places.

By Kd is commonly meant the constant that tells how readily two partners part at equilibrium. The EC50 is the concentration at which the effect is half-maximal. Broadly, the IC50 is the concentration that gives 50% inhibition.

Series [1] deals with T1, TRKB extracellular domain (TRKB-ECD) (Homo sapiens, UniProt Q16620).
T1 construct: TRKB-ECD (marked in red, C^32-E^429, XP_016870240); His (C); made in house; host or cells: Pichia pastoris
T1 sequence (Q16620 32-429): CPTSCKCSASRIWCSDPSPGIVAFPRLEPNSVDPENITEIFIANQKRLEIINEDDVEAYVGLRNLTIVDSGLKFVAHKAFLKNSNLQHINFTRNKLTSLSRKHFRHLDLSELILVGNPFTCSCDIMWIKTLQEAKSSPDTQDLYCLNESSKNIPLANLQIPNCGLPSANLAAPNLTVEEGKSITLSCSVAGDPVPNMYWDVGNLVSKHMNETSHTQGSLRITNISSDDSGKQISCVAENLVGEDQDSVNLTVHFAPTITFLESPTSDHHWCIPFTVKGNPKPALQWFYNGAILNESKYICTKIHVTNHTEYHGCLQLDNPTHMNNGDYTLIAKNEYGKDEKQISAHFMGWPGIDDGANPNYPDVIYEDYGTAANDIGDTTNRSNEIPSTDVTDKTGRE
Briefly: Tryptophan fluorescence quenching assay. The settings on record: Pichia pastoris-expressed TRKB-ECD, 0–1000 nM, excitation 295 nm, emission 330 nm, room temperature; read-out: KD (TRKB-ECD binding affinity). On the procedure: The interaction between the N-terminal extracellular domain of TRKB (TRKB-ECD) and 7,8-DHF (as positive control; [35]), ZN-015, VB-030 or VB-037 was evaluated with tryptophan fluorescence titration. TRKB-ECD-His protein was expressed in the Pichia expression system (Invitrogen) and purified as stated. Intrinsic tryptophan fluorescence spectra with titration of a different concentration of compounds (0–1000 nM) were recorded by fluorescence spectrophotometer F-7000 (Hitachi, Tokyo, Japan), with excitation wavelength 295 nm and emission wavelength in the range of 300–400 nm. The calculation of dissociation constant (KD) between the 7,8-DHF or ZN/VB compound and TRKB was described in a previous report.

For series [2], the target named is T1, TRKB extracellular domain (TRKB-ECD). More on the design: method as in PMID 25143381. As to conditions: read-out: KD (TRKB-ECD binding affinity), reported value; cited from earlier work.
Series [3] deals with T2, E. coli-expressed ΔK280 TauRD protein (Homo sapiens, UniProt P10636, DEL597-597).
T2 construct: TauRD (Q^244-E^372 of Tau, NP_005901) aggregation; N-terminal Met (N); made in house; host or cells: E. coli
T2 sequence (P10636 with tags, fused parts or gaps isoform P10636-8 DEL280-280): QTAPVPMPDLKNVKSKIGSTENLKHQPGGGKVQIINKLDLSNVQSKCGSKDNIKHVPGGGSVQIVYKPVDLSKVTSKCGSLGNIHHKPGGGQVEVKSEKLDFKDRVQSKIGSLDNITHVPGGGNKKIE
Briefly: Thioflavin T fluorescence ΔK280 TauRD aggregation assay. In kind it is biochemical. The settings on record: TauRD protein 20 μM, 48 h at 37 °C; read-out: EC50 inhibiting ΔK280 TauRD aggregation. On the procedure:
The anti-aggregation activity of congo red (positive control) and ZN/VB compounds (5–20 μM) was assessed using E. coli-expressed ΔK280 TauRD protein [33] and thioflavin T (Sigma-Aldrich) fluorescence assay. The trend of ΔK280 TauRD amyloid aggregate formation depicted with enhanced and red-shifted fluorescence was recorded by a FLx800 microplate fluorescence reader (BioTek Instruments), where the procedure was previously reported in detail.

The nature of the next series: MTT cell viability assay. In kind it is cell-based. The settings on record: human. On the procedure:
Human neuroblastoma SH-SY5Y cells with inducible ΔK280 TauRD-DsRed expression were maintained in DMEM/F-12 supplemented with fetal bovine serum (FBS, 10%) (Thermo Scientific, Waltham, MA, USA), penicillin/streptomycin (100 U/mL), selection antibiotics hygromycin (100 μg/mL) and blasticidin (5 μg/mL) (InvivoGen, San Diego, CA, USA), and 1.5 g/l sodium bicarbonate. Cells were cultured at 37 °C in a 5% CO2 atmosphere. The cell viability of ZN and VB compounds (concentration range: 0.1–100 μM) was evaluated by a 3-(4,5-dimethylthiazol-2-yl)-2,5-diphenyltetrazolium bromide (MTT; Sigma-Aldrich) colorimetric assay. The absorbance at 570 nm was recorded by a Multiskan™ GO Microplate Spectrophotometer (Thermo Scientific).
Background: Tetrazolium assays rely on reduction of a dye to a coloured formazan, in cell work by metabolically active cells.

The nature of series [4]: Cell number / cell survival in induced ΔK280 TauRD-DsRed SH-SY5Y cells (high-content). In kind it is cell-based, human. The settings on record: human; induced SH-SY5Y cells expressing ΔK280 TauRD-DsRed for 6 days, 2–10 μM tested; read-out: IC50 cytotoxicity based on cell number. On the procedure:
(§1) ΔK280 TauRD-DsRed SH-SY5Y cells were plated in the presence of 10 μM retinoid acid (RA; Sigma-Aldrich) to promote neuronal differentiation. The next day, cells were added with congo red or ZN/VB compounds (2–10 μM) for 8 h pretreatment, followed by inducing ΔK280 TauRD-DsRed expression with doxycycline (2 μg/mL). On day 8, cell nuclei were stained with Hoechst 33342 (0.1 μg/mL; Thermo Scientific), and cell images acquired using ImageXpress Micro Confocal High-Content Imaging System (Molecular Devices, San Jose, CA, USA) with DAPI (4′,6-diamidino-2-phenylindole, for nuclei) and TRITC (tetramethylrhodamine, for DsRed) fluorescence filter sets. To detect ROS changes, 10 μM compound-treated cells were stained with Hoechst 33342 and 2′,7′-dichlorodihydrofluorescein diacetate (H2DCFDA, 10 μM) fluorescein (Invitrogen, Carlsbad, CA, USA), and cell images captured using DAPI and FITC (fluorescein isothiocyanate, for DCF) filters. For assessing differential neurite outgrowth, 10 μM compound-treated cells were fixed (paraformaldehyde, 4%), permeabilized (Triton X-100, 0.3%), and stained with class III β-tubulin (TUBB3, 1:1000) primary antibody (#802001, BioLegend, San Diego, CA, USA), followed by donkey anti-rabbit Alexa Fluor® 555 secondary antibody (1:1000; #A-31572, Invitrogen) and DAPI (0.1 μg/mL; Sigma-Aldrich) stains. The nuclei and neurite images were acquired with DAPI and TRITC fluorescence filters, respectively. All analyses of images were performed using MetaXpress software (Molecular Device).

Series [5] deals with SH-SY5Y cells expressing ΔK280 TauRD-DsRed. The description is as above. The settings on record: induced ΔK280 TauRD-DsRed SH-SY5Y, 2–10 μM. In kind it is cell-based, human. On the procedure:
as §1

Series [6] in a line: DPPH free-radical scavenging assay. In kind it is physicochemical. The settings on record: 10–160 μM, compared to kaempferol. On the procedure: Free-radical scavenging activity of kaempferol (positive control) and ZN/VB compounds (10–160 μM) was measured using a 1,1-diphenyl-2-picrylhydrazyl (DPPH; Sigma-Aldrich) photometric assay as stated. The absorbance at 517 nm was assessed by a Multiskan™ GO Microplate Spectrophotometer (Thermo Scientific). An oxygen radical absorbance capacity (ORAC) assay of kaempferol and ZN/VB compounds (4–100 μM) was conducted according to the manufacturer’s instructions (OxiSelect™; Cell Biolabs, San Diego, CA, USA). The decrease of fluorescence intensity was monitored by a FLx800 microplate fluorescence reader (BioTek Instruments, Winooski, VT, USA). The ORAC activity was quantified as a trolox-equivalent antioxidant capacity.

Series [7] concerns ROS in ΔK280 TauRD-DsRed SH-SY5Y cells. Briefly: High-content assessment of cellular ROS (H2DCFDA). In kind it is cell-based, human. As to conditions: 10 μM; uninduced = 100%, induced untreated 123%; range over compounds. On the procedure:
as §1, with “For assessing differential neurite outgrowth, 10 μM compound-treated cells were fixed (paraformaldehyde, 4%), permeabilized (Triton X-100, 0.3%), and stained with class III β-tubulin (TUBB3, 1:1000) primary antibody (#802001, BioLegend, San Diego, CA, USA), followed by donkey anti-rabbit Alexa Fluor® 555 secondary antibody (1:1000; #A-31572, Invitrogen) and DAPI (0.1 μg/mL; Sigma-Aldrich) stains.” left out, “All analyses of images were performed using MetaXpress software (Molecular Device).” left out

In the next series the target is T3, ΔK280 TauRD-DsRed (Homo sapiens, UniProt P10636, DEL597-597).
T3 construct: TauRD (Q^244-E^372 of Tau, NP_005901) aggregation; expressed in transfected cells; host or cells: SH-SY5Y (Tet-On, doxycycline-inducible)
T3 sequence (P10636 with tags, fused parts or gaps isoform P10636-8 DEL280-280): as above
Briefly: High-content DsRed fluorescence assay of ΔK280 TauRD-DsRed folding reporter cells. In kind it is cell-based. As to conditions: 10 μM; untreated cells = 100%; 8 h pretreatment, 6 day Dox induction. As to the method:
as §1, with “For assessing differential neurite outgrowth, 10 μM compound-treated cells were fixed (paraformaldehyde, 4%), permeabilized (Triton X-100, 0.3%), and stained with class III β-tubulin (TUBB3, 1:1000) primary antibody (#802001, BioLegend, San Diego, CA, USA), followed by donkey anti-rabbit Alexa Fluor® 555 secondary antibody (1:1000; #A-31572, Invitrogen) and DAPI (0.1 μg/mL; Sigma-Aldrich) stains.” left out, “All analyses of images were performed using MetaXpress software (Molecular Device).” left out

For `O=c1cc(-c2ccccc2)oc2c(O)c(O)ccc12` [7,8-DHF, 7,8-dihydroxy flavone, reference compound], the Kd in series [1] was 0.0134 ± 0.0084 µM; in series [2], 0.0121 ± 0.0016 µM.

With `Cc1ccc(-c2cc(-c3ccncc3)nc3ccccc23)cc1` [VB-030, 2-(pyridin-4-yl)-4-(p-tolyl)quinoline], the Kd in series [1] was determined as 0.011 ± 0.0024 µM. In [3], the EC50 stood at 20.3 µM. Besides, the IC50 at 24 h in the series “MTT cell viability assay” is greater than 100 µM. Further, the IC50 at 6 days in [4] is greater than 10 µM.

`Cc1ccc2[nH]c(=O)c(C(=O)/C=C/c3nc4ccccc4[nH]3)c(-c3ccccc3)c2c1` [VB-031, (E)-3-(3-(1H-benzo[d]imidazol-2-yl)acryloyl)-6-methyl-4-phenylquinolin-2(1H)-one] yielded an IC50 at 24 h in “MTT cell viability assay” of 6 µM. Besides, the IC50 at 6 days in series [4] is less than 2 µM. Further, in [5], the “percentage of cell survival” value is “less than 75%”.

With `O=[N+]([O-])c1cccc2nc(/C=C/c3cc4ccccc4nc3N3CCOCC3)ccc12` [VB-037, (E)-4-(3-(2-(5-nitroquinolin-2-yl)vinyl)quinolin-2-yl)morpholine], in [1], the Kd worked out at 0.0043 ± 0.0052 µM. Moreover, in [6], the “DPPH free radical scavenging activity” value is “very weak DPPH free radical scavenging activity”. Further, in series [3], the EC50 is 13.1 µM. In the series “MTT cell viability assay”, this compound yielded an IC50 at 24 h greater than 100 µM. Besides, the “ROS level (DCF fluorescence)” value in [7] is reported as “no effect on reducing ROS”. Moreover, the IC50 at 6 days in [4] was determined as 23 µM.

The compound `O=C(Nc1cccc(S(=O)(=O)NC2=NCCCCC2)c1)c1cc(-c2ccncc2)nc2ccccc12` [VB-041, 2-(pyridin-4-yl)-N-(3-(N-(3,4,5,6-tetrahydro-2H-azepin-7-yl)sulfamoyl)phenyl)quinoline-4-carboxamide] showed an IC50 at 24 h in the series “MTT cell viability assay” greater than 100 µM. Besides, in series [4], the IC50 at 6 days is greater than 10 µM.

As to `O=C(O)COc1cc(O)c2c(=O)cc(-c3ccccc3)oc2c1` [ZN-006, 2-((5-hydroxy-4-oxo-2-phenyl-4H-chromen-7-yl)oxy)acetic acid], the IC50 at 24 h in “MTT cell viability assay” is greater than 100 µM. In addition, the IC50 at 6 days in series [4] was greater than 10 µM.

Turning to `COc1cccc2oc(C(=O)c3ccccc3)cc12` [ZN-013, (4-methoxybenzofuran-2-yl)(phenyl)methanone], the IC50 at 24 h in the series “MTT cell viability assay” is greater than 100 µM. In addition, the concentration for half-maximal inhibition (IC50) at 6 days in series [4] was found to be 27 µM.

For the compound `CCOC(=O)c1cc2c(O)cccc2oc1=O` [ZN-014, ethyl 5-hydroxy-2-oxo-2H-chromene-3-carboxylate], in the series “MTT cell viability assay” (uninduced ΔK280 TauRD-DsRed SH-SY5Y, 0.1–100 μM, 24 h, read-out: IC50 cytotoxicity (MTT)), the IC50 at 24 h was greater than 100 µM. The IC50 at 6 days in series [4] was greater than 10 µM.

With `Nc1c(/N=N/c2ccc(-c3ccc(/N=N/c4cc(S(=O)(=O)O)c5ccccc5c4N)cc3)cc2)cc(S(=O)(=O)O)c2ccccc12` [congo red, Congo red, reference compound], in series [3], the EC50 was found to be 13.9 µM. Also, the DsRed fluorescence at ΔK280 TauRD-DsRed came out at 114%. Further, the IC50 at 6 days in series [4] is greater than 10 µM.

The values are drawn from article PMC9953660, “Using ΔK280 TauRD Folding Reporter Cells to Screen TRKB Agonists as Alzheimer’s Disease Treatment Strategy” (Biomolecules, 2023).
